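48-hour exposure; five concentrations; linearly interpolated endpoints. GI50 marks 50% less growth. The concentration for full growth arrest is given as TGI.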
Columns and labels:
Assay in all cases: DTP human tumour cell line panel, 48 h
DMS 114 small cell lung = tested on: DMS 114 small cell lung
DLD-1 colon = tested on: DLD-1 colon
RXF-631 renal = tested on: RXF-631 renal
DMS 273 small cell lung = tested on: DMS 273 small cell lung
LXFL 529 NSCLC = tested on: LXFL 529 NSCLC
T-47D breast = tested on: T-47D breast
M19-MEL melanoma = tested on: M19-MEL melanoma
XF 498 CNS = tested on: XF 498 CNS
MDA-N = tested on: MDA-N

| Structure (SMILES) | TGI (DMS 114 small cell lung) [µM] | TGI (DLD-1 colon) [µM] | TGI (RXF-631 renal) [µM] | TGI (DMS 273 small cell lung) [µM] | TGI (LXFL 529 NSCLC) [µM] | GI50 (T-47D breast) [µM] | TGI (T-47D breast) [µM] | TGI (M19-MEL melanoma) [µM] | TGI (XF 498 CNS) [µM] | TGI (MDA-N) [µM] |
| --- | --- | --- | --- | --- | --- | --- | --- | --- | --- | --- |
| Oc1oc(C(=C2N=c3ccccc3=N2)c2ccc(Cl)cc2)c(O)c1-c1ccc(Cl)cc1 | 5.52 | > 100 | > 100 | 19.1 | 12.2 | – | – | – | – | – |
| Nc1c(C(=O)Nc2ccccn2)sc2nc3c(cc12)C(=O)CCC3 | – | – | – | – | – | 4.89 | > 100 | – | – | – |
| O=C1C/C(Br)=C\c2ccccc2-c2ccccc21 | 6.58 | 2.92 | – | 7.65 | 3.5 | – | – | 4.65 | 3.7 | – |
| c1ccc2c(c1)CCc1c(-c3ccncc3)n[nH]c1-2 | 51.7 | > 100 | – | 52.1 | 66.2 | – | – | 72.8 | 22.5 | – |
| COC(=N)c1csc(C2OC(CO)C(O)C2O)n1 (centres undefined) | > 100 | > 100 | > 100 | > 100 | > 100 | – | – | > 100 | > 100 | – |
| O=c1cccc(C#CC#C[C@@H]2O[C@H]2CO)o1 | – | – | – | – | – | 1.33 | 3.32 | – | – | – |
| FC(F)(F)c1ccc2nc(NCc3ccccc3)c(-c3ccccc3)nc2c1 | – | – | – | > 100 | > 100 | – | – | > 100 | 43.5 | – |
| COc1cccc2c1O/C(=C\c1ccc([N+](=O)[O-])s1)C2=O | – | – | – | – | – | 1.48 | 7.16 | – | – | – |
| Cc1cc(C)nc(NS(=O)(=O)c2ccc(Nc3c4ccccc4nc4c(C(=O)N5CCN(CCO)CC5)cccc34)cc2)n1 | > 100 | > 100 | – | > 100 | > 100 | – | – | > 100 | > 100 | – |
| COc1c(C)c(OCC=C(C)C)cc(CO)c1CO | – | – | – | – | – | – | > 100 | – | – | > 100 |
| COc1ccc(CNc2c3ccccc3nc3ccccc23)cc1F | – | – | – | – | – | 4.39 | 21.5 | – | – | – |
| CCCCCCn1c(-c2ccc(C(=O)O/N=C(\N)c3ccc4c(c3)OCO4)cc2)nc(-c2ccccc2)c1-c1ccccc1 | – | – | – | – | – | 2.03 | 5.11 | – | – | – |
| CCOC(=O)Nc1c(C)nc2ccccn12 | – | – | – | – | – | > 100 | > 100 | – | – | – |
| CCC(C)(C)n1c(C)nc2c1C(=O)c1ccccc1C2=O | – | > 100 | – | 44.6 | > 100 | – | – | 31.7 | 46.7 | – |
| Cc1cc2c(cc1C)[n+](=O)cc(C(=O)C/C(=N/NC(=S)NN)C(=O)Nc1cccc(C(F)(F)F)c1)n2[O-] | > 100 | > 100 | > 100 | > 100 | > 100 | – | – | > 100 | – | – |
| COc1cc(OC)c(OC)cc1/C=N/NC(=O)N/N=C/c1cc(OC)c(OC)cc1OC | > 100 | – | – | > 100 | > 100 | – | – | > 100 | > 100 | – |
| CNc1nc(N)nc(Nc2ccc(I)cc2)c1N=O | – | – | – | – | – | – | – | – | – | > 100 |
| C=CC12CCN(CC1)C(C(O)c1ccnc3ccc(OC)cc13)C2 (centres undefined) | – | – | – | – | – | > 100 | > 100 | – | – | – |
| NC(=O)c1cc(I)ccc1NC(=O)/C=C/c1ccccc1 | – | – | – | – | – | 0.597 | > 65.7 | – | – | – |

| Structure (SMILES) | TGI (DMS 114 small cell lung) [µM] | TGI (DLD-1 colon) [µM] | TGI (RXF-631 renal) [µM] | TGI (DMS 273 small cell lung) [µM] | TGI (LXFL 529 NSCLC) [µM] | GI50 (T-47D breast) [µM] | TGI (T-47D breast) [µM] | TGI (M19-MEL melanoma) [µM] | TGI (XF 498 CNS) [µM] | TGI (MDA-N) [µM] |
| --- | --- | --- | --- | --- | --- | --- | --- | --- | --- | --- |
| COc1ccc2c(=O)oc3c(OC)cc(CCN(C)C)c4c(=O)oc1c2c34 | 24.9 | 39.4 | – | 31.5 | 26 | – | 18 | 28.1 | – | 14.8 |
| CN(C)CCNC(=O)Cc1ccccc1Nc1c(Cl)cccc1Cl | 33.1 | 27.3 | – | 30.5 | 32.5 | – | – | 28.5 | – | – |
| Cc1nc2c(N)ncnc2o1 | > 100 | > 100 | > 100 | > 100 | > 100 | – | – | > 100 | – | – |
| Cc1cc(C(=O)CSC(=S)SC(C)(C)C)ccc1Cl | – | – | – | – | – | – | – | – | – | 36.8 |
| CCOC(=O)c1c(C)c2c(n1Cc1ccccc1)CSCC2=O | – | – | – | – | – | 7.04 | 45.3 | – | – | – |
| CC(=O)N/C(=C\c1ccccc1/C=C(\NC(C)=O)c1nc2cc(C)c(C)cc2[nH]1)c1nc2cc(C)c(C)cc2[nH]1 | 11.2 | 56.5 | – | 47.6 | 30.8 | – | – | 85.8 | 32.9 | – |
| CO[C@@H]1CC[C@]2(C)OC[C@H](C)[C@@H]3C[C@@H](C)[C@@H](OC(C)=O)[C@@H]4[C@H]3[C@@H]2O[C@H]4C[C@@]1(C)O | – | – | – | – | – | > 100 | > 100 | – | – | – |
| O=C1c2cccc3cccc(c23)C(=O)N1CCN(CCO)CCO | – | > 100 | > 100 | 66.3 | > 100 | – | – | 43.8 | 66.5 | – |
| C[C@H](CCOc1cccc(CC(=O)O)c1)N(Cc1cccc(C(F)(F)F)c1Cl)CC(c1ccccc1)c1ccccc1 | – | – | – | – | – | 4.47 | 33.6 | – | – | – |
| C/C(=N\NC(N)=O)c1sc(-c2nc(C)c(/C(C)=N/NC(N)=O)s2)nc1C | – | > 100 | – | 49.6 | > 100 | – | – | > 100 | > 100 | – |
| CCOC(=O)Cc1csc(Nc2ccccc2[N+](=O)[O-])n1 | > 100 | – | – | > 100 | > 100 | – | – | > 100 | – | – |
| C=C(C)C(C1C=C(CCC(C=O)=C(C)C)C(=O)O1)C1(OC)C=C(C)C(=O)O1 (centres undefined) | – | – | – | – | – | 25.8 | > 100 | – | – | – |
| COC(=O)c1c(C)cc(OC)c(C/C=C(\C)CCCc2coc(C=C(C)C)c2)c1OC | – | – | – | – | – | – | > 100 | – | – | > 100 |
| COC(=O)/C=C/c1cc(OC(C)=O)c2c(c1)C(C(=O)OC)C(c1ccc(OC(C)=O)c(OC(C)=O)c1)O2 (centres undefined) | – | – | – | – | – | 3.11 | > 76.8 | – | – | – |
| CN1Nc2ccccc2CC1=O | > 100 | > 100 | – | > 100 | – | – | – | > 100 | > 100 | – |
| O=[N+]([O-])c1ccccc1N=Nc1c(O)[nH]c2c(Cl)cc(Cl)cc12 | – | – | – | – | – | – | > 100 | – | – | > 100 |
| O=C(O)c1ccc(CNCc2ccccc2)cc1 | – | – | – | – | – | – | > 100 | – | – | > 100 |
| CCN(Cc1c(F)cccc1OC)c1ccc(CO)c(Cl)c1 | – | – | – | – | – | 0.0467 | 0.283 | – | – | – |
| CNCCCNc1ccnc2cc(Cl)ccc12 | – | – | – | – | – | 25.7 | > 100 | – | – | – |

— PubChem BioAssay (NCI)
